# From patent publication US20150038464A1, “METHODS OF INCREASING LIGHT RESPONSIVENESS IN A SUBJECT WITH RETINAL DEGENERATION” (The United States Government as represented by the …, priority 2012, published 2015)
# How the values were obtained:
# [1] = test system: P23H rat RGCs; experiment: Light-evoked responses (intensity-response curves) of retinal ganglion cells recorded extracellularly from isolated P23H rat retina; format: cell-based; conditions: 16 P23H rat RGCs, 500 nM JNJ16259685
# [2] = test system: P23H rat RGCs; experiment: as above; format: cell-based; conditions: 500 nM JNJ16259685
# Procedure: Sprague-Dawley (SD) rats (age range 13-44 weeks) and P23H-line 1 homozygous rats (age range 23-42 weeks) were used in this study. Both the SD rats and P23H rats were bred and housed in the same facility. Breeding pairs of SD rats were obtained from Harlan Laboratories (Indianapolis, Ind.). Breeding pairs of P23H-line 1 homozygous rats were generously donated by Dr. Matthew LaVail (University of California San Francisco, Calif.). The room light was kept on a 12 hour light/dark cycle using standard fluorescent lighting. During the light cycle the illumination at the level of the cages was 100-200 lux. All animal care procedures and experimental methods were approved by the appropriate Institutional Animal Care and Use Committee.
# On the day of an experiment, a rat was euthanized with sodium pentobarbital (150 mg/kg, i.p.), and the eyes were removed and hemisected under normal room light. […]
# Light from a mercury arc lamp illuminated an aperture that was focused on the retina from above through the 4× objective of the microscope. The image produced on the retina was either a 250-μm or 1.5-mm diameter spot, which was centered on the recorded RGC. […] The intensity of the unattenuated light stimulus on the retina measured with a spectroradiometer (ILT900-R, International Light Technologies, Peabody, Mass.) was 8.5×10^17 photons/cm^2/s. […]
smiles,measurement,setting,value
"CO[C@H]1CC[C@@H](C(=O)c2ccc3nc4c(cc3c2)CCCO4)CC1 [JNJ16259685, 3,4-dihydro-2H-pyranol[2,3-b]quinolin-7-yl-(cis-4-methoxycyclohexyl)-methanone]",dynamic operating range with drug,"[1]; mean±SD, before drug 0.89±0.41",1.05±0.42 log unit
same,maximum peak response with drug,"[1]; mean±SD, before drug 162±65",178±64 spikes/s
same,factor by which the light the cells responded to was less intense than without drug,[1],~4 fold
same,increase in dynamic operating range,[1]; not significant (P=0.239),18%
same,average increase in light sensitivity,"[2]; 16 P23H rat RGCs (15 ON-center, one OFF-center)",0.56 log units
same,increase in maximum peak response,"[2]; 16 P23H rat RGCs, P=0.007",9.9%
